Assay results taken from US10081634B2, “Heterocyclic compound” (Daewoong Pharmaceutical Co., Ltd., priority 2014, dated 2018).
pIC50: −log10 of the molar value. Like-named read-outs stand apart in the source and are kept apart here.

What was measured:
[1] = target: T1, PRS (prolyl-tRNA synthetase) (Homo sapiens, UniProt P07814); assay: In vitro PRS enzyme activity inhibition experiment ([3H]proline, liquid scintillation); assay type: biochemical
T1 construct: the portion corresponding to PRS in cDNA of EPRS was subcloned; made in house
T1 sequence (P07814 1007-1512 limits assumed): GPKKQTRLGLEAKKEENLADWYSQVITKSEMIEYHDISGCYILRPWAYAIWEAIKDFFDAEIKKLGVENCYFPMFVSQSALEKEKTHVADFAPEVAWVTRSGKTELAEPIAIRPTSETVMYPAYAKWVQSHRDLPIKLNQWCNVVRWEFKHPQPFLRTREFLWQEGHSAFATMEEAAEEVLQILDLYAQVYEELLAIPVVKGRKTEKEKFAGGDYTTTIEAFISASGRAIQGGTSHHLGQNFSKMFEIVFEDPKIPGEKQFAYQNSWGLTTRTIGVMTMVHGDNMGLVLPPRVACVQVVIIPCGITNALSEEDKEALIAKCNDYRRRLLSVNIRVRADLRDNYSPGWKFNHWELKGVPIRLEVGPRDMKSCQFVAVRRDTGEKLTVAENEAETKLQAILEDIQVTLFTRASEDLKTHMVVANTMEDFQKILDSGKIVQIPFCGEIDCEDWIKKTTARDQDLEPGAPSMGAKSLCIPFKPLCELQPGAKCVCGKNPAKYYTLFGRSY
Description: In order to confirm the biological activities of the compounds prepared in Examples, % inhibition or IC50 values of PRS enzyme ([…]) activities were calculated.
Specifically, the portion corresponding to PRS in cDNA of EPRS was subcloned, and the obtained high-purity PRS protein was purified and used in the experiment. The compounds (1 μM) prepared in Examples were added into the reaction buffer (20 mM KPO4 (pH 7.4), 6 mM MgAc, 5 mM ATP, […] tRNA, 0.5 mM DTT, 20 mCi[^3H]proline (1 mCi/mL)) and allowed to react at 37° C. for 5 to 10 minutes. The reaction was terminated with 3M paper that was previously dried by addition of 5% TCA. The radioactivity was measured using a liquid scintillation counter.
IC50 values of the respective compounds were calculated and analyzed using Microsoft Excel or Sigma Plot 8.0. In Table 1, the results are divided into A, B and C according to the range of IC50. The case where the derived IC50 is 100 nM or less is represented by “A”, the case where the IC50 is 100 to 500 nM is represented by “B”, and the case where the IC50 is 500 nM or higher is represented by “C”.

NCI-H460 cells = assay: Cancer cell growth inhibition experiment (MTT assay); assay type: cell-based; settings: Homo sapiens; NCI-H460 lung cancer cell line; 48 hours treatment; MTT cell viability
Description: NCI-H460 cells, lung cancer cell lines, were cultured in 5% CO2, 37° C. incubator using a flask for 75 cm^2 tissue culture. 96-well plates were used for the evaluation. These were prepared by differently applying at concentrations in the range of 6,000 to 12,000 cells/well according to the growth rate of the cell lines. The medium containing 5% FBS were dispensed in 200 μL/well and used. The medium were cultured for 24 hours. After confirming the cell status and dispensing form of a 96-well plate under a microscope, they were used for subsequent experiments. The compounds were evaluated at concentrations of 100, 30, 10, 3, 1, 0.3, 0.03, 0.01 μM. After removing the existing medium, the compounds with various concentrations were treated in an amount of 200 μL/well. The compounds-treated plates were further cultured for 48 hours, and the cell viabilities were measured by MTT assay to calculate IC50 values.
% Inhibition and IC50 values of the respective compounds were calculated and analyzed using Sigma Plot 8.0. The case where the derived IC50 is 5 μM or less is represented by “A”, the case where the IC50 is 5 to 30 μM is represented by “B”, and the case where the IC50 is 30 μM or higher is represented by “C”.

[2] = purified PRS protein subcloned from EPRS cDNA, 37° C., 5 to 10 minutes, read-out: PRS IC50

pIC50 [1, 2]	pIC50 (NCI-H460 cells)	Structure (SMILES)	pIC50 [1]
> 7.00	≥ 5.30	Cc1c(Cl)cnc2c1ncn2CC(=O)C[C@H]1NCCC[C@@H]1O [Example 39, 1-(6-chloro-7-methyl-3H-imidazo[4,5-b]pyridin-3-yl)-3-((2R,3S)-3-hydroxypiperidin-2-yl)propan-2-one]	
< 6.30	≤ 4.52	O[C@H]1CCCN[C@@H]1CC(F)(F)Cn1cnc2cc(Cl)c(Cl)cc21 [Example 82, (2R,3S)-2-(3-(5,6-dichloro-1H-benzo[d]imidazol-1-yl)-2,2-difluoropropyl)piperidin-3-ol]	
> 7.00	≥ 5.30	O=C(C[C@H]1NCCC[C@@H]1O)Cn1cnc2cc(Br)cnc21 [Example 37, 1-(6-bromo-3H-imidazo[4,5-b]pyridin-3-yl)-3-((2R,3S)-3-hydroxypiperidin-2-yl)propan-2-one]	
6.30 to 7.00	≤ 4.52	O=C(C[C@H]1NCCC[C@@H]1O)Cn1ccc2ccnc(Cl)c21 [Example 93, 1-(7-chloro-1H-pyrrolo[2,3-c]pyridin-1-yl)-3-((2R,3S)-3-hydroxypiperidin-2-yl)propan-2-one]	
> 7.00	4.52 to 5.30	OC(C[C@H]1NCCC[C@@H]1O)Cn1cnc2c(Cl)c(Br)ccc21 (stereo partly drawn) [Example 71, (2R,3S)-2-(3-(5-bromo-4-chloro-1H-benzo[d]imidazol-1-yl)-2-hydroxypropyl)piperidin-3-ol]	
6.30 to 7.00	4.52 to 5.30	O=C(C[C@H]1NCCC[C@@H]1O)Cn1c(CO)nc2cc(Br)ccc21 [Example 57, 1-(5-bromo-2-(hydroxymethyl)-1H-benzo[d]imidazol-1-yl)-3-((2R,3S)-3-hydroxypiperidin-2-yl)propan-2-one]	
< 6.30	≤ 4.52	O=C(C[C@H]1NCCC[C@@H]1O)Cn1c(C(F)(F)F)nc2cc(Cl)c(Cl)cc21 [Example 50, 1-(5,6-dichloro-2-(trifluoromethyl)-1H-benzo[d]imidazol-1-yl)-3-((2R,3S)-3-hydroxypiperidin-2-yl)propan-2-one]	
6.30 to 7.00	≤ 4.52	N#Cc1cnc2c(c1)ncn2CC(=O)C[C@H]1NCCC[C@@H]1O [Example 38, 3-(3-((2R,3S)-3-hydroxypiperidin-2-yl)-2-oxopropyl)-3H-imidazo[4,5-b]pyridine-6-carbonitrile]	
< 6.30	≤ 4.52	O=C(C[C@H]1NCCC[C@@H]1O)Cn1nnc2ccc(Cl)cc21 [Example 100, 1-(6-chloro-1H-benzo[d][1,2,3]triazol-1-yl)-3-((2R,3S)-3-hydroxypiperidin-2-yl)propan-2-one]	
> 7.00	≥ 5.30	O=C(C[C@H]1NCCC[C@@H]1O)Cn1c(CO)nc2cc(Cl)c(Cl)cc21 [Example 87, 1-(5,6-dichloro-2-(hydroxymethyl)-1H-benzo[d]imidazol-1-yl)-3-((2R,3S)-3-hydroxypiperidin-2-yl)propan-2-one]	
> 7.00	≤ 4.52	O=C(C[C@H]1NCCC[C@@H]1O)Cn1c(CO)nc2ccccc21 [Example 56, 1-(2-(hydroxymethyl)-1H-benzo[d]imidazol-1-yl)-3-((2R,3S)-3-hydroxypiperidin-2-yl)propan-2-one]	
> 7.00	4.52 to 5.30	O=C(C[C@H]1NCCC[C@@H]1O)Cn1cnc2cc(Br)ccc21 [Example 4, 1-(5-bromo-1H-benzo[d]imidazol-1-yl)-3-((2R,3S)-3-hydroxypiperidin-2-yl)propan-2-one]	
> 7.00	4.52 to 5.30	O=C(C[C@H]1NCCC[C@@H]1O)Cn1cnc2c(C(F)(F)F)c(F)ccc21 [Example 17, 1-(5-fluoro-4-(trifluoromethyl)-1H-benzo[d]imidazol-1-yl)-3-((2R,3S)-3-hydroxypiperidin-2-yl)propan-2-one]	
< 6.30	≤ 4.52	O=C(C[C@H]1NCCC[C@@H]1O)Cn1ccc2ncc(Br)cc21 [Example 94, 1-(6-bromo-1H-pyrrolo[3,2-b]pyridin-1-yl)-3-((2R,3S)-3-hydroxypiperidin-2-yl)propan-2-one]	
> 7.00	4.52 to 5.30	Cc1ccc2c(ncn2CC(=O)C[C@H]2NCCC[C@@H]2O)c1Br [Example 19, 1-(4-bromo-5-methyl-1H-benzo[d]imidazol-1-yl)-3-((2R,3S)-3-hydroxypiperidin-2-yl)propan-2-one]	
< 6.30	≤ 4.52	CN(C)Cc1nc2cc(Cl)c(Cl)cc2n1CC(=O)C[C@H]1NCCC[C@@H]1O [Example 51, 1-(5,6-dichloro-2-((dimethylamino)methyl)-1H-benzo[d]imidazol-1-yl)-3-((2R,3S)-3-hydroxypiperidin-2-yl)propan-2-one]	
< 6.30	≤ 4.52	CC(O)(C[C@H]1NCCC[C@@H]1O)Cn1cnc2ccccc21 (stereo partly drawn) [Example 80, (2R,3S)-2-(3-(1H-benzo[d]imidazol-1-yl)-2-hydroxy-2-methylpropyl)piperidin-3-ol]	
< 6.30	≤ 4.52	OC(C[C@H]1NCCC[C@@H]1O)Cn1cnc2ccccc21 (stereo partly drawn) [Example 69, (2R,3S)-2-(3-(1H-benzo[d]imidazol-1-yl)-2-hydroxypropyl)piperidin-3-ol]	
> 7.00	4.52 to 5.30	Cc1ccc2c(ncn2CC(=O)C[C@H]2NCCC[C@@H]2O)c1C [Example 16, 1-(4,5-dimethyl-1H-benzo[d]imidazol-1-yl)-3-((2R,3S)-3-hydroxypiperidin-2-yl)propan-2-one]	
> 7.00	≥ 5.30	Cc1c(Br)ccc2c1ncn2CC(=O)C[C@H]1NCCC[C@@H]1O [Example 15, 1-(5-bromo-4-methyl-1H-benzo[d]imidazol-1-yl)-3-((2R,3S)-3-hydroxypiperidin-2-yl)propan-2-one]	
> 7.00	≤ 4.52	Cc1c(Br)cnc2c1ncn2CC(O)C[C@H]1NCCC[C@@H]1O (stereo partly drawn) [Example 78, (2R,3S)-2-(3-(6-bromo-7-methyl-3H-imidazo[4,5-b]pyridin-3-yl)-2-hydroxypropyl)piperidin-3-ol]	
6.30 to 7.00	≤ 4.52	O=C(C[C@H]1NCCC[C@@H]1O)Cn1nnc2cc(Cl)ccc21 [Example 99, 1-(5-chloro-1H-benzo[d][1,2,3]triazol-1-yl)-3-((2R,3S)-3-hydroxypiperidin-2-yl)propan-2-one]	
> 7.00	≥ 5.30	O=C(C[C@H]1NCCC[C@@H]1O)Cn1cnc2cc(F)c(Br)cc21 [Example 26, 1-(6-bromo-5-fluoro-1H-benzo[d]imidazol-1-yl)-3-((2R,3S)-3-hydroxypiperidin-2-yl)propan-2-one]	
< 6.30	≤ 4.52	NCc1nc2cc(Cl)c(Cl)cc2n1CC(=O)C[C@H]1NCCC[C@@H]1O [Example 52, 1-(2-(aminomethyl)-5,6-dichloro-1H-benzo[d]imidazol-1-yl)-3-((2R,3S)-3-hydroxypiperidin-2-yl)propan-2-one]	

Structure (SMILES)	pIC50 [1, 2]	pIC50 (NCI-H460 cells)	pIC50 [1]
O=C(C[C@H]1NCCC[C@@H]1O)Cn1cnc2c(Cl)c(Br)cnc21 [Example 42, 1-(6-bromo-7-chloro-3H-imidazo[4,5-b]pyridin-3-yl)-3-((2R,3S)-3-hydroxypiperidin-2-yl)propan-2-one]		≥ 5.30	> 7.00
Cc1c(C#N)cnc2c1ccn2CC(=O)C[C@H]1NCCC[C@@H]1O [Example 95, 1-(3-((2R,3S)-3-hydroxypiperidin-2-yl)-2-oxopropyl)-4-methyl-1H-pyrrolo[2,3-b]pyridin-5-carbonitrile]		≤ 4.52	< 6.30
